From patent US5045566A, “Novel imidate insecticides” (ICI Americas Inc., priority 1989, dated 1991)

Key:
Type in all cases: in vivo
[1] = test system: Aster Leafhopper [Macrosteles fascifrens (Stal)]; assay: Aster leafhopper on dipped oat seedlings (LH), 48 hours; settings: percent in solution, adults/nymphs
Outline: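 LC50 values, given as percent of test compound in the dip solution, were derived from dosage-mortality curves over concentrations from 0.05% downward. Mortality was counted 48 hours after ten leafhopper adults/nymphs were enclosed on treated seedlings. The seedlings were oats, about 10 cm tall, briefly dipped in 50-50 acetone-water.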

[2] = test system: Black Bean Aphid [Aphis fabae (Scop.)]; assay: Black bean aphid spray test on nasturtium (BBA), 48 hours; settings: percent of test compound in sprayed solution
Outline: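 LC50, given as percent test compound in the sprayed liquid, was calculated from dosage-mortality curves using concentrations from 0.05% downward. Sprays in 50:50 acetone-water went to runoff on ~5 cm nasturtiums carrying 25-50 aphids of mixed ages, one day after infestation. Deaths were counted 48 h later under greenhouse conditions.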

[3] = test system: Cabbage Looper [Trichoplusia ni (Hubner)]; assay: Cabbage looper leaf dip (CL), 3-5 days; settings: percent in solution, second-instar larvae
Outline: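 LC50, as percent test compound in solution, derived from dosage-mortality curves; concentrations started at 0.1% and went lower. Five second-instar larvae per dish fed on acetone-water-dipped, dried squash cotyledons in a humid chamber. Deaths recorded 3-5 days post-infestation.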

[4] = test system: Housefly [Musca domestica]; assay: Housefly contact mortality in dishes (HF), 48 hours; settings: μg of test compound per 25 female flies
Outline: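 LC50 (μg compound per 25 female flies) derives from dosage-mortality curves of 48 h kill. Flies, females 1-2 days old, were held 25 per cage over a dish coated with dried acetone deposit, starting at 100 μg per cage and descending.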

[5] = test system: Tobacco Budworm [Heliothis virescens (Fabricius)] eggs; assay: Tobacco budworm eggs (TBW-E); settings: percent in solution; 2-day old eggs
Outline: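 LC50 is given as percent compound in the dipping solution, fitted from dosage-mortality curves. Two-day-old eggs on paper towel were dipped in acetone solutions (top concentration 0.1%), kept at 78° F on rearing medium, and scored after control hatch and larval feeding.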

[6] = test system: Tobacco Budworm [Heliothis virescens (Fabricius)] larvae; assay: Tobacco budworm larvae, contact (TBW-C), 5 days; settings: percent in solution, second-instar larvae
Description: The compounds in Tables 1 and 2 above were tested for insecticidal activity using the following testing procedures. LC50 values, based on the results of these tests and calculated according to dosage-mortality curves, are expressed in Table 3.
Tobacco Budworm [Heliothis virescens (Fabricius)]:
(a) Contact: Test compounds were diluted in a 50-50 acetone-water solution. Cotton (Gossypium sp.) cotyledons were immersed in the test solutions for 2-3 seconds and placed on a wire screen to dry. The dried leaves were placed in petri dishes containing a moistened piece of filter paper and infested with 5 second-instar tobacco budworm larvae. The dishes were placed in a high humidity chamber for 5 days, and percent mortality of the larvae recorded. Test concentrations ranged from 0.1% downward. The LC-50 values are expressed below in Table 3 under the heading "TBW-C" in terms of percent of the test compound in the solution.

[7] = test system: Maize weevil [Sitophilus zeamais (Motschulsky)]; assay: Maize weevil on dipped corn seeds (MW), 48 hours; settings: percent in solution, adult weevils
Outline: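 LC50, given as percent of compound in dipping solution, comes from dosage-mortality curves over concentrations descending from 0.01%. Four corn seeds soaked 2-3 s in 50:50 acetone:water solution were dried and held with 10 adult weevils, about 25° C, mortality read after 48 h.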

Row | Structure (SMILES) | LC50 LH [1] | LC50 BBA [2] | LC50 CL [3] | LC50 HF [4] | LC50 TBW E (eggs) [5] | LC50 TBW C (contact) [6] | LC50 MW [7]
1 | CC(C)(C)C(=Nc1ccc(Cl)cc1)OCc1cccc(Oc2ccccc2)c1 [Compound 30] | > 0.05% | > 0.05% | 0.003% | > 100 µg | > 0.1% | 0.01% | > 0.01%
2 | CC(C)C(=Nc1ccc(Cl)c(Cl)c1)OCc1cccc(Oc2ccc(F)cc2)c1 [Compound 37] | 0.002% | – | 0.0004% | 21 µg | 0.014% | 0.0005% | 0.009%
3 | CC(C)C(=Nc1c(F)c(F)c(F)c(F)c1F)OCc1cccc(Oc2ccccc2)c1 [Compound 51] | 0.001% | 0.01% | 0.001% | 25 µg | 0.067% | 0.0025% | –
4 | CC(C)C(=Nc1ccc(F)c(F)c1)OCc1cccc(Oc2ccc(F)cc2)c1 [Compound 60, N-(3,4-Difluorophenyl)-O-(4'-fluoro-3-phenoxybenzyl)isobutyrylimidate] | 0.002% | – | 0.001% | 8 µg | 0.017% | 0.0009% | 0.0075%
5 | Cc1ccc(N=C(OCc2cccc(Oc3ccccc3)c2)C(C)C)cc1F [Compound 75] | 0.0008% | 0.0006% | 0.0025% | 5 µg | 0.01% | 0.0075% | –
6 | CC(C)C(=Nc1ccc(F)c(C(F)(F)F)c1)OCc1cccc(Oc2ccc(F)cc2)c1 [Compound 120] | 0.0003% | 0.0006% | 0.00015% | 14 µg | 0.04% | 0.0025% | > 0.01%
7 | CCOc1ccc(N=C(OCc2cccc(Oc3ccccc3)c2)C(Cl)Cl)cc1 [Compound 138] | – | 0.003% | 0.005% | 19 µg | 0.08% | 0.015% | > 0.01%
8 | COc1ccccc1N=C(OCc1cccc(Oc2ccccc2)c1)C(C)C [Compound 145] | > 0.05% | > 0.05% | 0.05% | > 100 µg | > 0.1% | 0.05% | –
9 | CC(C)C(=Nc1cccc(Cl)c1)OCc1cccc(Oc2ccc(F)cc2)c1 [Compound 194] | 0.0005% | 0.001% | 0.0005% | 10 µg | 0.04% | 0.0017% | > 0.01%
10 | CC(C)C(=Nc1ccc(F)c(Cl)c1)OCc1cccc(Oc2ccc(C#N)cc2)c1 [Compound 196] | > 0.05% | – | 0.0006% | 17 µg | > 0.1% | 0.001% | > 0.01%
11 | CC(C)C(=Nc1cc(F)cc(F)c1)OCc1cccc(Oc2ccc(F)cc2)c1 [Compound 199] | – | – | 0.0006% | 8 µg | > 0.1% | 0.003% | > 0.01%
12 | CC(C)C(=Nc1cccc(C(F)(F)F)c1)OCc1cccc(Oc2ccc(F)cc2)c1 [Compound 202] | 0.0003% | 0.003% | 0.00024% | 18 µg | > 0.1% | 0.0007% | > 0.01%
13 | CC(C)(C)C(=Nc1ccc(F)c(Cl)c1)OCc1cccc(Oc2ccc(F)cc2)c1 [Compound 204] | – | – | 0.0023% | > 100 µg | > 0.1% | 0.004% | > 0.01%
14 | CC(C)C(=Nc1ccc(F)cc1F)OCc1cccc(Oc2ccc(F)cc2)c1 [Compound 209] | 0.001% | 0.01% | 0.0007% | 17 µg | 0.1% | 0.005% | > 0.01%
15 | CCC(C)C(=Nc1ccc(F)c(Cl)c1)OCc1cccc(Oc2ccc(F)cc2)c1 (centres unmarked) [Compound 210] | – | 0.01% | 0.00028% | 35 µg | 0.045% | 0.0015% | > 0.01%
16 | CC(C)C(=Nc1ccc2c(c1)OC(C)(C)O2)OCc1cccc(Oc2ccc(F)cc2)c1 [Compound 219] | – | 0.003% | 0.00025% | 50 µg | 0.027% | 0.004% | > 0.01%
17 | CC(C)C(=Nc1ccc(Br)cc1)OCc1cccc(Oc2ccc(F)cc2)c1 [Compound 226] | 0.002% | 0.01% | 0.0005% | 16 µg | 0.1% | 0.001% | 0.009%
18 | CC(C)C(=Nc1ccc(I)cc1)OCc1cccc(Oc2ccc(F)cc2)c1 [Compound 234] | 0.003% | 0.003% | 0.00045% | 38 µg | 0.09% | 0.0013% | > 0.01%
19 | CC(C)C(=Nc1ccc(F)c(C(F)(F)F)c1)OCc1ccc(F)c(Oc2ccc(Cl)cc2)c1 [Compound 297] | 0.0001% | – | 0.00027% | 23 µg | 0.025% | 0.00075% | 0.0071%
20 | C=C(C)C(=Nc1ccc(C(F)(F)F)cc1)OCc1ccc(F)c(Oc2ccc(Cl)cc2)c1 [Compound 432] | – | 0.001% | 0.0012% | < 100 µg | 0.032% | < 0.1% | > 0.01%
